The values below are quoted from earlier work in US20250093362A1, “HIGH-THROUGHPUT ENGINEERING OF MOLECULAR GLUES” (Frontier Medicines Corporation, priority 2021, published 2025).

Molecules are shown by their SMILES.

The data set concerns the target CDK12-cyclin K and CUL4 adaptor protein DDB1 (Homo sapiens, UniProt Q16531+Q9NYV4). The conditions noted are these: analog of CR8 lacking a single methylene group; Nat. 2020, 585 (7824), 293.

Sequence of CDK12-cyclin K and CUL4 adaptor protein DDB1 (Q9NYV4 713-1052 limits assumed): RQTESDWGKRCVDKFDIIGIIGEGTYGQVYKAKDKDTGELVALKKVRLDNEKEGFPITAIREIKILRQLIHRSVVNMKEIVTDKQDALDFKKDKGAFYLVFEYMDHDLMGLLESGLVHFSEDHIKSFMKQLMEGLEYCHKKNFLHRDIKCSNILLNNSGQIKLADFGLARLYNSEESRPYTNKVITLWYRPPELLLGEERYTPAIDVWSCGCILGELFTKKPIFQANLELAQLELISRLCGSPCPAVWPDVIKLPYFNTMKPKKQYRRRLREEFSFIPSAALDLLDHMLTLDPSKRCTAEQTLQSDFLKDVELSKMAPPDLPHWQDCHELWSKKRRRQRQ
Sequence of CDK12-cyclin K and CUL4 adaptor protein DDB1 (O75909 1-267 partner limits assumed): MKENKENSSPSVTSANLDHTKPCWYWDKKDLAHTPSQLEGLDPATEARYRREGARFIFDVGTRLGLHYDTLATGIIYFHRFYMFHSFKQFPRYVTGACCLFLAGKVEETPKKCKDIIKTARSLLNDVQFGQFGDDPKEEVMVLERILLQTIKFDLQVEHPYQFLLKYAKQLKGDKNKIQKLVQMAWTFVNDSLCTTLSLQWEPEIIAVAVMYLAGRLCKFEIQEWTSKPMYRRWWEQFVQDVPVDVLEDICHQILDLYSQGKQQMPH
Sequence of CDK12-cyclin K and CUL4 adaptor protein DDB1 (Q16531 whole entry): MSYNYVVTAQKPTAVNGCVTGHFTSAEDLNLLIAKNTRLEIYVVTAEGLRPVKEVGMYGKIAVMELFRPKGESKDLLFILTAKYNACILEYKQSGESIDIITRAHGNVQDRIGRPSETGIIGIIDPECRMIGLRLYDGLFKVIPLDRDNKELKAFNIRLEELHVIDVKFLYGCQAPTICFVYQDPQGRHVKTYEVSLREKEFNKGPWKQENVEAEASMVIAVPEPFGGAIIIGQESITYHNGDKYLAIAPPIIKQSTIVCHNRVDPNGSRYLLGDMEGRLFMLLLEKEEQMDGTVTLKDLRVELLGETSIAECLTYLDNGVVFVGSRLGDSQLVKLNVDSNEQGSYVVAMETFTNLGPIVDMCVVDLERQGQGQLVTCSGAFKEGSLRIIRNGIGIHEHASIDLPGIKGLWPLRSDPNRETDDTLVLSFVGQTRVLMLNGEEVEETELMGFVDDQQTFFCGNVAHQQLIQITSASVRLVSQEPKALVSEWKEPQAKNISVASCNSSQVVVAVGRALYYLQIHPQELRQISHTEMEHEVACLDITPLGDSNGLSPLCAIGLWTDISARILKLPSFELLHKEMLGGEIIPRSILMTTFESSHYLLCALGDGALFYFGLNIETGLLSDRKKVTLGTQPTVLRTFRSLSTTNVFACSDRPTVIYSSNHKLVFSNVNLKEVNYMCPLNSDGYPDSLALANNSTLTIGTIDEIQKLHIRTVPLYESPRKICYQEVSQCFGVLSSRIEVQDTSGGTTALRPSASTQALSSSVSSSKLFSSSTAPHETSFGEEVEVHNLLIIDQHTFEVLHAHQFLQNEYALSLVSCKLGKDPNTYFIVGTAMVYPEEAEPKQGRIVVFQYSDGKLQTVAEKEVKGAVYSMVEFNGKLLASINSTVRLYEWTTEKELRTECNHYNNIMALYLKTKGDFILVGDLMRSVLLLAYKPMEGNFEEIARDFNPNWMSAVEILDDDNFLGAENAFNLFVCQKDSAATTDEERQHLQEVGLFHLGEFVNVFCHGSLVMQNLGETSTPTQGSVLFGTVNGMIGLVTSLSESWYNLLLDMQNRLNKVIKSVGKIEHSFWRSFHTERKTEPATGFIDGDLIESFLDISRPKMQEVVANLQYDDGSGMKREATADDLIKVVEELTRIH

`CC[C@H](CO)Nc1nc(Nc2ccc(-c3ccccn3)cc2)c2ncn(C(C)C)c2n1` [DRF053]: the “driving formation of the ternary complex of CDK12-cyclin K and DDB1” value is “ineffectual”.
